Measurements published in article PMC8199500, “Novel Bis- and Mono-Pyrrolo[2,3-d]pyrimidine and Purine Derivatives: Synthesis, Computational Analysis and Antiproliferative Evaluation” (Molecules, 2021).

Assays:
Type in all cases: cell-based, human
[1] = test system: ductal pancreatic adenocarcinoma (CFPAC-1) cells; assay: MTT proliferation assay, CFPAC-1 cells
Experimental: (§1) Human carcinoma cell lines A549 (lung carcinoma), HeLa (cervical carcinoma), SW620 (colorectal adenocarcinoma, metastatic) and CFPAC-1 (pancreatic cancer, derived from metastatic: liver), and normal human foreskin (HFF-1) fibroblasts were obtained from the American Type Culture Collection (ATCC, Manassas, VA, USA). Cells were cultured in humidified atmosphere at 37 °C with 5% CO2. As growth medium, Dulbecco′s modified Eagle medium (DMEM) was used with the addition of fetal bovine serum (10%), L-glutamine (2 mM) and antibiotics: streptomycin ([…]) and penicillin (100 U/mL).
(§2) Cells were seeded onto 96-well microtiter plates at a seeding density of 3000 cells/well for carcinoma cell lines, and 5000 cells/well for normal human fibroblasts. The next day, cells were treated with test agents in five different concentrations (0.01–100 µM) and further incubated for 72 h. […] Following 72 h incubation, the MTT assay was performed and measured absorbances were transformed into percentage of cell growth as described previously. Results were obtained from three independent experiments. IC50 values were calculated using linear regression analysis and results were statistically analyzed by ANOVA, Tukey post-hoc test (p < 0.05).

[2] = test system: lung adenocarcinoma (A549) cells; assay: MTT proliferation assay, A549 cells
Experimental: as §1, §2

[3] = test system: cervical carcinoma (HeLa) cells; assay: MTT proliferation assay, HeLa cells; conditions: 72 h incubation
Experimental: as §1, §2

[4] = test system: metastatic colorectal adenocarcinoma (SW620) cells; assay: MTT proliferation assay, SW620 cells
Experimental: as §1, §2

[5] = Homo sapiens, CFPAC-1, 72 h incubation
[6] = Homo sapiens, A549, 72 h incubation
[7] = Homo sapiens, SW-620, 72 h incubation

## {1-[2-(4-Chloro-7H-pyrrolo[2,3-d]pyrimidin-7-yl)ethyl]-1H-1,2,3-triazol-4-yl}methyl ether [5d]
[1]; 72 h incubation
  IC50: 36.5 ± 3.9 µM
[2]; 72 h incubation
  IC50: > 100 µM
[3]
  IC50: > 100 µM
[4]; 72 h incubation
  IC50: 53.5 ± 4.8 µM

## 6-(piperidin-1-yl)-9-{2-[4-(((4′-(prop-2-yn-1-yloxy)-[1,1′-biphenyl]-4-yl)oxy)methyl)-1H-1,2,3-triazol-1-yl]ethyl}-9H-purine [10f]
[1]; 72 h incubation
  IC50: 6.5 ± 0.78 µM
[2]; 72 h incubation
  IC50: 62.1 ± 2.3 µM
[3]
  IC50: 8.1 ± 2.2 µM
[4]; 72 h incubation
  IC50: 98 ± 1.3 µM

## C#CCCCc1cn(CCn2cnc3c(N4CCCCC4)ncnc32)nn1 [9g, 9-{2-[4-(pent-4-yn-1-yl)-1H-1,2,3-triazol-1-yl]ethyl}-6-(piperidin-1-yl)-9H-purine]
[1]; [5]
  IC50: 75.2 ± 12.2 µM
[2]; [6]
  IC50: > 100 µM
[3]; Homo sapiens, HeLa
  IC50: 72.2 ± 9 µM
[4]; [7]
  IC50: > 100 µM

## C#CCCCc1cn(CCn2ccc3c(Cl)ncnc32)nn1 [5g, 4-chloro-7-{2-[4-(pent-4-yn-1-yl)-1H-1,2,3-triazol-1-yl]ethyl}-7H-pyrrolo[2,3-d]pyrimidine]
[1]; [5]
  IC50: 19.5 ± 4 µM
[2]; [6]
  IC50: > 100 µM
[3]; Homo sapiens, HeLa
  IC50: 75 ± 3.5 µM
[4]; [7]
  IC50: 80.5 ± 14.9 µM

## {1-[2-(6-Amino-9H-purin-9-yl)ethyl]-1H-1,2,3-triazol-4-yl}methyl ether [11d]
[1]; 72 h incubation
  IC50: > 100 µM
[2]; 72 h incubation
  IC50: > 100 µM
[3]
  IC50: > 100 µM
[4]; 72 h incubation
  IC50: > 100 µM

## c1nc(N2CCCC2)c2ncn(CCn3cc(COc4ccc(OCc5cn(CCn6cnc7c(N8CCCC8)ncnc76)nn5)cc4)nn3)c2n1 [10a, 1,4-Bis{[1-(2-(6-(pyrrolidin-1-yl)-9H-purin-9-yl)ethyl)-1H-1,2,3-triazol-4-yl]methoxy}benzene]
[1]; [5]
  IC50: 48.5 ± 1.6 µM
[2]; [6]
  IC50: 95 ± 3.2 µM
[3]; Homo sapiens, HeLa
  IC50: 60.6 ± 5.9 µM
[4]; [7]
  IC50: 98.3 ± 7.4 µM

## {1-[2-(4-(Pyrrolidin-1-yl)-7H-pyrrolo[2,3-d]pyrimidin-7-yl)ethyl]-1H-1,2,3-triazol-4-yl}methyl ether [7d]
[1]; 72 h incubation
  IC50: > 100 µM
[2]; 72 h incubation
  IC50: > 100 µM
[3]
  IC50: > 100 µM
[4]; 72 h incubation
  IC50: > 100 µM

## Nc1ncnc2c1ncn2CCn1cc(COc2ccc(OCc3cn(CCn4cnc5c(N)ncnc54)nn3)cc2)nn1 [11a, 1,4-Bis{[1-(2-(6-amino-9H-purin-9-yl)ethyl)-1H-1,2,3-triazol-4-yl]methoxy}benzene]
[1]; [5]
  IC50: > 100 µM
[2]; [6]
  IC50: > 100 µM
[3]; Homo sapiens, HeLa
  IC50: > 100 µM
[4]; [7]
  IC50: > 100 µM

## {1-[2-(6-(Piperidin-1-yl)-9H-purin-9-yl)ethyl]-1H-1,2,3-triazol-4-yl}methyl ether [10d]
[1]; 72 h incubation
  IC50: 52.5 ± 4.6 µM
[2]; 72 h incubation
  IC50: 87.3 ± 4.4 µM
[3]
  IC50: 66.9 ± 11.2 µM
[4]; 72 h incubation
  IC50: 63.4 ± 3.6 µM

## Clc1ncnc2c1ccn2CCn1cc(CCCc2cn(CCn3ccc4c(Cl)ncnc43)nn2)nn1 [5c, 1,3-Bis{1-[2-(4-chloro-7H-pyrrolo[2,3-d]pyrimidin-7-yl)ethyl]-1H-1,2,3-triazol-4-yl}propane]
[1]; [5]
  IC50: 74.9 ± 3.8 µM
[2]; [6]
  IC50: 99.6 ± 1.5 µM
[3]; Homo sapiens, HeLa
  IC50: 99.7 ± 5.9 µM
[4]; [7]
  IC50: > 100 µM

## {1-[2-(6-(Piperidin-1-yl)-9H-purin-9-yl)ethyl]-1H-1,2,3-triazol-4-yl}methyl ether [9d]
[1]; 72 h incubation
  IC50: 56.8 ± 2.9 µM
[2]; 72 h incubation
  IC50: 73.1 ± 7.7 µM
[3]
  IC50: 34.7 ± 12.1 µM
[4]; 72 h incubation
  IC50: 66.1 ± 3 µM

## c1nc(N2CCCCC2)c2ncn(CCn3cc(CCCc4cn(CCn5cnc6c(N7CCCCC7)ncnc65)nn4)nn3)c2n1 [9c, 1,3-Bis{1-[2-(6-(piperidin-1-yl)-9H-purin-9-yl)ethyl]-1H-1,2,3-triazol-4-yl}propane]
[1]; [5]
  IC50: 53.9 ± 3.4 µM
[2]; [6]
  IC50: > 100 µM
[3]; Homo sapiens, HeLa
  IC50: 41.2 ± 0.99 µM
[4]; [7]
  IC50: > 100 µM

## Clc1ncnc2c1ccn2CCn1cc(COc2ccc(OCc3cn(CCn4ccc5c(Cl)ncnc54)nn3)cc2)nn1 [5a, 1,4-Bis{[1-(2-(4-chloro-7H-pyrrolo[2,3-d]pyrimidin-7-yl)ethyl)-1H-1,2,3-triazol-4-yl]methoxy}benzene]
[1]; [5]
  IC50: > 100 µM
[2]; [6]
  IC50: > 100 µM
[3]; Homo sapiens, HeLa
  IC50: 77 ± 2.6 µM
[4]; [7]
  IC50: > 100 µM
